In one data set the target is DNA S3 […]. Put plainly: FP binding assay, 18-nt DNA S3. Here is the method: (§1) All synthetic DNA and RNA oligomers were purchased from Integrated DNA Technologies and reconstituted in nuclease-free water (Invitrogen #AM9932) at 1 mM. The concentration of the oligonucleotides at ˜0.1 mM was calibrated with the A260 value measured by a NanoDrop ND-1000 (Thermo, Waltham, MA, USA) and the predicted extinction coefficient (http://www.oligoevaluator.com) using Lamber-Beer's Law. The risdiplam analogues (1 mM in DMSO) were diluted in 2× assay buffer (40 mM HEPES, 200 mM NaCl for RNA; 40 mM HEPES, 200 mM NaCl, 1 mM MgCl2 for DNA) to make a 1 μM 2× working solution.
(§2) A 1:2 dilution series (8 points) of each oligonucleotide was prepared in 20-30 μL water to desired concentrations (i.e., 1-128 μM). […] For fluorescence polarization measurement, 20 μL of the above 1× working solution was transferred into a 384-well, black, F-bottom microplates (Greiner Bio-One) in duplicates or triplicates. The plate was equilibrated at room temperature for 5 min before being read using a microplate reader (SYNERGY H1, BioTek; Excitation/Emission=360/460 nm) at 25° C. […] The mixture was then transferred into a microplate (20 μL each well) in duplicates for fluorescence polarization readout. The experimental data were analyzed using Prism 8 software (Graphpad Software, San Diego, CA, USA).

In data set [1] the target is DNA Seq8 (UGAAGGAAGUU as deoxyribonucleotides). Put plainly: FP binding assay, DNA Seq8. The following applies: Seq 8; 0.5 μM SMN-C2. Here is the method: as §1, §2
A further data set concerns the target RNA Seq7 UUAAGGAAGGU
Kind of data set: FP binding assay, RNA Seq7. The following applies: Seq 7 UUAAGGAAGGU; 0.5 μM SMN-C2. The method, then: as §1, §2

A further data set concerns the target DNA S9 […]. Put plainly: FP binding assay, 18-nt DNA S9. The method, then: as §1, §2
Data set [2] concerns the target DNA Seq13 (UGAAGAAAGGU as deoxyribonucleotides). Put plainly: FP binding assay, DNA Seq13. As to conditions: Seq 13; 0.5 μM SMN-C2. Here is the method: as §1, §2
For the next data set, the target named is RNA Seq8 UGAAGGAAGUU
Put plainly: FP binding assay, RNA Seq8. As to conditions: Seq 8 UGAAGGAAGUU; 0.5 μM SMN-C2. The method, then: as §1, §2

A further data set addresses DNA S2 […]. Kind of data set: FP binding assay, 18-nt DNA S2. The method, then: as §1, §2
For the next data set, the target named is DNA S6 […]. Kind of data set: FP binding assay, 18-nt DNA S6. The method, then: as §1, §2
In another data set the target is DNA S8 […]. Kind of data set: FP binding assay, 18-nt DNA S8. Here is the method: as §1, §2
The target in another data set is DNA S19 […]. Put plainly: FP binding assay, 18-nt DNA S19. Here is the method:
as §1, §2

Another data set relates to SMN2 exon 7 splicing. Put plainly: Cell-based SMN2 splicing assay in 293T cells (minigene). More on the design: species or system human. As to conditions: Homo sapiens, HEK-293T.
A short description of the next data set: in vitro. The following applies: human.
Another data set concerns the target DNA S10 […]. Kind of data set: FP binding assay, 18-nt DNA S10. Here is the method: as §1, §2
In a further data set the target is DNA Seq15 TGAAGGATGGT
Kind of data set: FP binding assay, DNA Seq15. As to conditions: Seq 15 TGAAGGATGGT; 0.5 μM SMN-C2. Here is the method:
as §1, §2

A further data set has as its target DNA Seq16 TGAAGGAAAGT
Kind of data set: FP binding assay, DNA Seq16. As to conditions: Seq 16 TGAAGGAAAGT; 0.5 μM SMN-C2. The method, then: as §1, §2

In a further data set the target is DNA Seq2 d(GAAGGAAGG). Kind of data set: FP binding assay, 9-nt DNA Seq2. The method, then:
as §1, §2

The target of another data set is DNA S1 […]. Kind of data set: FP binding assay, 18-nt DNA S1. As to conditions: range = 95% CI. Here is the method:
as §1, §2

In a further data set the target is DNA S11 […]. Kind of data set: FP binding assay, 18-nt DNA S11. The method, then:
as §1, §2

For another data set, the target named is DNA Seq12 TGAAAGAAGGT
Put plainly: FP binding assay, DNA Seq12. The following applies: Seq 12 TGAAAGAAGGT; 0.5 μM SMN-C2. The method, then: as §1, §2

Drawing on patent US20250368651A1 (priority 2022, published 2025), this text covers Kd, EC50 and CC50 for one compound.

Broadly, the Kd is the equilibrium constant for the complex coming apart. In general, EC50 refers to the concentration at which the effect is half-maximal.

Each structure is given as a SMILES string. Where two headings read alike, the source gives them in different places.

Regarding `CCN1CCN(c2ccc3cc(-c4cn5cc(C)nc(C)c5n4)c(=O)oc3c2)C[C@@H]1C` [SMN-C2, (S)-3-(6,8-dimethylimidazo[1,2-a]pyrazin-2-yl)-7-(4-ethyl-3-methylpiperazin-1-yl)-2H-chromen-2-one], the Kd at DNA S3 […] was 21.7 ± 2.7 µM; in data set [1], 14.7 ± 0.7 µM; at RNA Seq7 UUAAGGAAGGU, 42.3 ± 13.3 µM; at DNA S9 […], 56.2 ± 13.9 µM; in data set [2] it was above 100 µM; at RNA Seq8 UGAAGGAAGUU it was above 100 µM. For the same compound, the Kd on DNA S2 […] turned out to be 20.2 ± 1.7 µM; at DNA S6 […] it was 33.3 ± 2.3 µM; at DNA S8 […], 12.4 ± 0.4 µM; on DNA S19 […] it was 21 ± 1.1 µM; on DNA S10 […], 26.4 ± 2.2 µM; at DNA Seq15 TGAAGGATGGT, 41.1 ± 4.4 µM. Further, the Kd on DNA Seq16 TGAAGGAAAGT came to 27.4 ± 6 µM; at DNA Seq2 d(GAAGGAAGG), 34.3 ± 9.6 µM; at DNA S1 […], 15.3 ± 0.6 µM; at DNA S11 […] it was 26.3 ± 1.2 µM; at DNA Seq12 TGAAAGAAGGT, 17.6 ± 3.4 µM. Moreover, the half-maximal effective concentration (EC50) with SMN2 exon 7 splicing (Table 3, read-out: SMN2 Splicing EC50) is 0.0635 ± 0.0296 µM; in the data set with SMN2 exon 7 splicing (cell-based SMN2 splicing assay in 293T cells, read-out: SMN2 EC50), 0.26 ± 0.13 µM. The CC50 in “in vitro” was above 30 µM.
